Data as given in patent US20080132505A1 (Glaxo Group Limited, priority 2004, published 2008).

How the values were obtained:
[1] = biological target: human cannabinoid CB2 receptor (Homo sapiens, UniProt P34972); test: Cannabinoid CB2 receptor agonist activity (yeast reporter assay, FDGlu fluorescence); format: cell-based; settings: for EC50: EC50 value at the cloned human cannabinoid CB2 receptor; for Emax: read-out: efficacy value (Emax relative to HU210) at the cloned human cannabinoid CB2 receptor
Sequence of human cannabinoid CB2 receptor (P34972 whole entry): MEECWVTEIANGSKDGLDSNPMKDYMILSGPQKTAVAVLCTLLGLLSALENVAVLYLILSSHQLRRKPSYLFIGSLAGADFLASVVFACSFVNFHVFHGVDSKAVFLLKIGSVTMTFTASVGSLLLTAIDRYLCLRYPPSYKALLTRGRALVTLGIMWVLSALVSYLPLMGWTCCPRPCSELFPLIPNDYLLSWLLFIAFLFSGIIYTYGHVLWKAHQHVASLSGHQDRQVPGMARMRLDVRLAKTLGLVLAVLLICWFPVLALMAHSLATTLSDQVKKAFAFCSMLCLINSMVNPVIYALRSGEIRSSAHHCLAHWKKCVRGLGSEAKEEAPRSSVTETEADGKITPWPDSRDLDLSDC
Outline: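 Agonist-driven growth was read as fluorescein fluorescence (ex 485, em 535 nm) from FDGlu cleavage after 24 h at 30 °C, using yeast strain MMY23 carrying human CB2 and chimeric Gpa1/Gαi3. Medium had 10 mM 3-aminotriazole, pH 7.0; four-parameter fits gave EC50, with Emax and EMR versus HU210.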

[2] = Particle size analysis (Lecotrac laser particle size analyser) pre and post nanomilling; format: physicochemical
Method: 2.5 g of compound of example 176 was weighed into a 10 ml centrifuge tube. 25 ml of 0.3 mm yttrium zirconium (YTZ) ceramic milling beads (Manufacturer: Tosob, Japan; Supplier: Glen Creston Ltd., batch no. 5280130030)”) was weighed into a 50 ml milling pot. 22.5 ml of aqueous 1.5% HPMC was measured with a measuring cylinder into a 100 ml beaker. This solution was homogenised for 3 seconds with an Ultra Turrax T25 homogeniser. Approximately 200 mg of the 2.5 g of the compound was added to the HPMC solution and homogenised at the lowest speed setting until the powder was wetted. This was repeated until all the compound had been added. The speed of the homogeniser was then increased to maximum and the suspension was homogenised for a further 3 minutes. This suspension was allowed to stand for 30 minutes in order to allow some of the foam to disperse. The suspension was then poured into the 50 ml pot containing the YTZ milling beads, stirring to release any trapped air. The lid to the pot was then fitted and the pot sealed with some Nesco film. This procedure was repeated for a second 50 ml nanomilling pot and both pots were placed on a Retsch mill and milled for a total of 8 hours.
The milling pots were removed from the Retsch mill and left to cool and for the foam to disperse overnight. In the morning the suspension and bead mixture was passed through a 200μ, 40 mm diameter screen. The contents from each 50 ml pot was washed with aqueous 1.5% HPMC: 10% of the original suspension volume (i.e. 2.5 ml). The suspension from the 2 pots was combined to make 1 batch. The suspension obtained from the method above was named the concentrate.
A particle size analysis was carried out on the Lecotrac laser particle size analyser. The results are shown in Table B along with the results from the starting material for comparison:
Compounds of Examples 19, 34, 194, 217, 228, 247 were nanomilled on a 1 g scale using the process described above and the particle size analysed pre and post nanomilling.

[3] = Table C, after nanomilling, 1 g scale
[4] = Table C, before nanomilling, 1 g scale
[5] = Table B, after 8 hours milling in aqueous 1.5% HPMC, 2.5 g per pot
[6] = Table B, starting material before nanomilling, Lecotrac laser particle size analyser

SMILES | EC50 [1] [nM] | Emax [1] [%] | Post-nanomilling 50% percentile [2, 3] [μ] | Post-nanomilling 95% percentile [2, 3] [μ] | Pre-nanomilling 50% percentile [2, 4] [μ] | Pre-nanomilling 95% percentile [2, 4] [μ] | Post-nanomilling 50% percentile [2, 5] [μ] | Post-nanomilling 95% percentile [2, 5] [μ] | Pre-nanomilling 50% percentile [2, 6] [μ] | Pre-nanomilling 95% percentile [2, 6] [μ]
O=C(NCC1CCC1)c1cnc(Nc2ccc(F)c(Cl)c2)nc1C(F)(F)F [Example 194, 2-(3-Chloro-4-fluorophenylamino)-4-trifluoromethyl-pyrimidine-5-carboxylic acid cyclobutylmethyl-amide] | 20 to 300 | > 50 | 0.56 | 1.97 | 6.78 | 33.7 |  |  |  | 
O=C(NCC1CCC1)c1cnc(Nc2ccc(Cl)cc2F)nc1C(F)(F)F [Example 228, 2-(2-Fluoro-4-chloro-phenylamino)-4-trifluoromethyl-pyrimidine-5-carboxylic acid cyclobutylmethyl-amide] | 20 to 300 | > 50 | 0.44 | 1.69 | 4.65 | 47.1 |  |  |  | 
O=C(NCC1CCCCC1)c1cnc(Nc2cccc(F)c2)nc1C(F)(F)F [Example 19, 2-(3-Fluorophenylamino)-4-trifluoromethylpyrimidine-5-carboxylic acid cyclohexylmethyl-amide] | 20 to 300 | > 50 | 0.40 | 1.40 | 5.22 | 25.5 |  |  |  | 
N#Cc1ccc(Nc2ncc(C(=O)NCC3CCOCC3)c(C(F)(F)F)n2)cc1Cl [Example 217, 2-(4-Cyano-3-chloro-phenylamino)-4-trifluoromethyl-pyrimidine-5-carboxylic acid (tetrahydro-pyran-4-ylmethyl)-amide] | 20 to 300 | > 50 | 0.34 | 1.30 | 5.70 | 34.9 |  |  |  | 
N#Cc1ccc(Nc2ncc(C(=O)NCC3CCCC3)c(C(F)(F)F)n2)cc1 [Example 176, 2-(4-Cyanophenylamino)-4-trifluoromethyl-pyrimidine-5-carboxylic acid cyclopentylmethyl-amide] | 20 to 300 | > 50 |  |  |  |  | 0.33 | 1.78 | 13.15 | 68.7
O=C(NCC1CCCC1)c1cnc(Nc2ccc(F)c(Cl)c2)nc1C(F)(F)F [Example 247, 2-(3-Chloro-4-fluoro-phenylamino)-4-trifluoromethyl-pyrimidine-5-carboxylic acid cyclopentylmethyl-amide] | 20 to 300 | > 50 | 0.64 | 2.53 | 13.2 | 68.7 |  |  |  | 
O=C(NCC1CCOCC1)c1cnc(Nc2ccc(Cl)cc2Cl)nc1C(F)(F)F [Example 34, 2-(2,4-Dichlorophenylamino)-4-trifluoromethylpyrimidine-5-carboxylic acid (tetrahydropyran-4-ylmethyl)-amide] | 20 to 300 | > 50 | 0.18 | 0.56 | 10.46 | 32.7 |  |  |  | 
O=C(NCc1ccc(F)cc1F)c1cnc(Nc2cccc(Cl)c2)nc1C(F)(F)F [Example 368, 2-(3-Chloro-phenylamino)-4-trifluoromethyl-pyrimidine-5-carboxylic acid 2,4-difluoro-benzylamide] | 20 to 300 |  |  |  |  |  |  |  |  | 
N#Cc1cccc(Nc2ncc(C(=O)NCC3CCOCC3)c(C(F)(F)F)n2)c1 [Example 172, 2-(3-Cyanophenylamino)-4-trifluoromethyl-pyrimidine-5-carboxylic acid (tetrahydropyran-4-ylmethyl)-amide] | 20 to 300 | > 50 |  |  |  |  |  |  |  | 
